Test results from patent publication US10576052B2, “Composition preventing bacterial inflammation in monogastric animals” (PERSTORP AB, priority 2015, dated 2020).

Experiments:
[1] = tested on: GLP-2 positive cells in the small intestine (jejunum and ileum); assay: Quantification of GLP-2 positive cells in villi and crypts of jejunum and ileum of broiler chickens fed supplemented feed; assay type: in vivo, Ross broiler chickens; settings: 5.6 g/kg feed from day of hatch, sampled at age of ten days
From the text: […] one-day-old Ross broiler chickens were obtained from a local hatchery. The animals were divided at random in two equal groups: one experimental groups, and one control group. The groups were housed on wood shavings in separate containers of 0.96 m^2. Commercial feed and drinking water was provided ad libitum, From the day of hatch, the experimental group received feed supplemented with glyceryl monovalerate (MV; Perstorp, 5.6 g/kg feed), according to the suppliers recommendations (in-feed supplementation). The control group, received unsupplemented feed. At the age of ten days, the animals were killed by injecting an intravenous overdose of pentobarbital and sampling was performed. Samples (1 cm in length) of jejunum and ileumn were submerged in 4% phosphate buffered (wt/vol) formaldehyde within 15 minutes after euthanasia. […] For each animal, the area of 10 randomly chosen villi and 30 randomly chosen crypts was measured for jejunum and ileum using LAS V3.8 software (Leica Microsystems GmbH, Wetzlar, Germany). In total 80 areas per bird were analysed. For every defined area, the number of cells was counted at magnification ×400. Only cells with a detectable nucleus were counted. The average number of cells per area villus or crypt (cells/mm^2) was calculated for each bird. […]

[2] = tested on: HilA expression; assay: Invasive gene expression (HilA expression) in Salmonella; assay type: cell-based
[3] = tested on: Salmonella; assay: In vitro Salmonella growth inhibition; assay type: cell-based

In the case of `CCCCC(=O)OCC(O)CO` (stereo not shown) [glyceryl monovalerate], the “average number of GLP-2 positive cells in the villi of jejunum and ileum, experimental group vs control group” value ([1]; P≤0.001, FIG. 1) is reported as “statistically higher”, the “average numbers of GLP2-positive cells in the crypts of jejunum and ileum, experimental group vs control group” value ([1]; P≤0.05, FIG. 2) is reported as “statistically higher” and the “invasive gene expression (HilA expression) in Salmonella” value [2] is reported as “down-regulated”. For the same molecule, the “inhibition of Salmonella growth” value [3] was “effective inhibitor”.
